Measured values: patent US20030207813A1, “Retroviral protease inhibitor combinations” (priority 1995, published 2003)
≈ marks a conversion by molar mass, not a printed value.

What was measured:
HIV-1RF = test: CEM-T4 cell infection assay, reverse transcriptase readout, isolate RF; type: cell-based; conditions: Human immunodeficiency virus 1, CEM-T4, 168 h, Table 4, CEM-T4 cells, 7 days, read-out: Virus Isolate (EC50 ng/mL) RF
Description: (§1) RF represents the HIV-1 strain HIV-LRF and RFR represents a mixture of resistant strains obtained by selection of RF against the compound of Example 1. RFR comprises a mixture of viral strains having protease genotypes of G48V (14/40 clones); G48V, V82A (18/40 clones); G48V, L90S (2/40 clones); G48V, 154T, V82A (1/40 clones); G48M (1/40 clones); G48V, Q61H (1/40 clones); V13I, G48V (1/40 clones); G48V, F53L, V82A (1/40 clones); and G48V, V82A, C95Y (1/40 clones). RFR2 represents a mixture of resistant strains obtained by cloning RFR by three rounds of growth at limiting dilution. RFR2 comprises a mixture of viral strains having protease genotypes of G48V, V82A (13/15 clones); G17E, G48V, V82A (1/15 clones); and G48V, V82A, N37D, N88D (1/15 clones). RFRR represents a mixture of resistant strains obtained by selection of RF against the compounds of Examples 1 and 2 and then cloning by three rounds of growth at limiting dilution. RFRR comprises a mixture of viral strains having protease genotypes of G48V, 154T, L63P, V82A (7/9 clones); G48V, 154T, L63P, V82A, N88S (1/9 clones); and G48V, 154T, L63P, G73M, V82A (1/9 clones). SF162 represents the HIV-1 strain SF-162 and SF162R represents a mixture of resistant strains obtained by selection of SF162 against the compound of Example 1. SF162R comprises a mixture of viral strains having protease genotypes of M461, F53L, L63P, A71V, N88D (2/3 clones); and M46I, F53L, L63P, A71V, N88D, Q92R (1/3 clones). 89-959 represents the HIV-1 strain 89-959 and 89-959R represents a mixture of resistant strains obtained by selection of 89-959 against the compound of Example 2. 89-959R comprises a mixture of viral strains having protease genotypes of N88S (4/5 clones); and D25N, T26A, D30N, D37N, R41K, G73D, R87K, N88S (1/4 clones). NL4 represents the HIV-1 strain HIV-1NL4-3. NL4(G48V) represents a strain having a synthetically generated site-directed mutation in the protease from glycine to valine at amino acid position number 48. NL4(I84V) represents a strain having a synthetically generated site-directed mutation in the protease from isoleucine to valine at amino acid position number 84. NL4(R8Q,M46I) represents a strain having synthetically generated site-directed mutations in the protease from arginine to glutamine at amino acid position number 8 and methionine to isoleucine at amino acid position number 46. NL4(P22-538) represents a mixture of resistant strains obtained by selection of HIV-1NL4-3 against the compound of Example 10 after 22 passages comprising protease genotypes M46I, L63P, A71V, V82F, I84V (4/10); M46I, L63P, V82F, I84V (3/10); and M46I, A71V, V82F, I84V (3/10). NL4(P37-538) represents resistant strains obtained by selection of HIV-1NL4-3 against the compound of Example 10 after 37 passages comprising protease genotype M46I, L63P, A71V, 184A. NL4(538/524) represents resistant strains obtained by selection of NL4(P22-538) against the compound of Example 5 after 24 passages comprising protease genotype M46I, L63P, A71V, 184A. NL4(538/P7-AG) represents a mixture of resistant strains obtained by selection of NL4(P22-538) against the compound of Example 12 after 7 passages comprising protease genotypes M46I, L63P, A71V, 184A; and V321, V82I. NL4(538/P24-AG) represents resistant strains obtained by selection of NL4(P22-538) against the compound of Example 12 after 24 passages comprising protease genotype M46I, L63P, A71V, 184A. NLA(P19-003) represents resistant strains obtained by selection of HIV-1^NL4-3 against the compound of Example 9 after 19 passages comprising protease genotype R8K, M46I. NL4(P34-003) represents resistant strains obtained by selection of HIV-1^NL4-3 against the compound of Example 9 after 34 passages comprising protease genotype R8K, M46I, L63P, A71V, L90M.
(§2) The viral isolate resistance results summarized in Tables 4-6 were generated according to the following assay procedure or minor modifications thereof. Assays are performed in 96-well tissue culture plates. […]

[1] = test system: RFR (resistant strains selected from RF against Example 1); test: CEM-T4 cell infection assay, reverse transcriptase readout, resistant isolate RFR; type: cell-based, HIV-1; conditions: Human immunodeficiency virus 1, CEM-T4, 168 h, Table 4, CEM-T4 cells, 7 days, read-out: Virus Isolate (EC50 ng/mL) RFR
Description: as §1, §2

SMILES: COc1ccc(S(=O)(=O)N(CC(C)C)C[C@@H](O)[C@H](Cc2ccccc2)NC(=O)OCc2cncnc2)cc1 [Example 3, [2R-hydroxy-3-[[(4-methoxyphenyl)sulfonyl](2-methylpropyl)amino]-1S-(phenylmethyl)propyl]carbamic acid 5-pyrimidylmethyl ester]
- EC50 (HIV-1RF): 5 ng/mL (≈ 9.21 nM)
- EC50 [1]: 2 ng/mL (≈ 3.69 nM)
